Each molecule was assayed on human cervical tumor cell line HeLa (ATCC CCL-2) (assay: SAC-Formation - Nocodazole-Induced Assay). Conditions: Homo sapiens, HeLa, 24 h, HeLa cells, nocodazole 0.1 μg/ml together with test compound, decrease of mitotic cells (phospho-histone H3 Ser10).
Assay type: cell-based
Method in brief: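 Loss of phospho-histone H3 Ser10-positive cells, counted against Hoechst-stained nuclei by high-content imaging, marked mitotic breakthrough. Compounds (0.005–20 μM, 0.5% DMSO) were co-dosed with 0.1 μg/ml nocodazole onto HeLa cells for 24 h at 37 °C. Curves were fitted with a four-parameter Hill equation.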
With `Cc1nsc(Nc2cnc(C(F)(F)F)cn2)c1C(=O)Nc1ccc(OC[C@@H]2CCCN(CC(F)F)C2)nc1` [Example 375, N-(6-{[(3R)-1-(2,2-difluoroethyl)piperidin-3-yl]methoxy}pyridin-3-yl)-3-methyl-5-{[5-(trifluoromethyl)pyrazin-2-yl]amino}-1,2-thiazole-4-carboxamide] the IC50 was 40 nM. `Cc1nsc(Nc2cnc(C(F)(F)F)cn2)c1C(=O)Nc1ccc(OC[C@@H]2CCCN(CC(F)(F)F)C2)nc1` [Example 376, 3-methyl-N-(6-{[(3R)-1-(2,2,2-trifluoroethyl)piperidin-3-yl]methoxy}pyridin-3-yl)-5-{[5-(trifluoromethyl)pyrazin-2-yl]amino}-1,2-thiazole-4-carboxamide] showed an IC50 of 50 nM. With `Cc1nsc(Nc2cnc(C(F)(F)F)cn2)c1C(=O)Nc1ccc(OC[C@@H]2CCCN(CCC(F)(F)F)C2)nc1` [Example 377, 3-methyl-5-{[5-(trifluoromethyl)pyrazin-2-yl]amino}-N-(6-{[(3R)-1-(3,3,3-trifluoropropyl)piperidin-3-yl]methoxy}pyridin-3-yl)-1,2-thiazole-4-carboxamide] the IC50 was 40 nM. `Cc1nsc(Nc2cnc(C(F)(F)F)cn2)c1C(=O)Nc1ccc(O[C@@H]2CCN(CC(F)F)C2)nc1` [Example 379, N-(6-{[(3R)-1-(2,2-difluoroethyl)pyrrolidin-3-yl]oxy}pyridin-3-yl)-3-methyl-5-{[5-(trifluoromethyl)pyrazin-2-yl]amino}-1,2-thiazole-4-carboxamide] showed an IC50 of 34 nM. Molecule `Cc1nsc(Nc2cnc(C(F)(F)F)cn2)c1C(=O)Nc1ccc(O[C@@H]2CCN(CC(F)(F)F)C2)nc1` [Example 380, 3-methyl-N-(6-{[(3R)-1-(2,2,2-trifluoroethyl)pyrrolidin-3-yl]oxy}pyridin-3-yl)-5-{[5-(trifluoromethyl)pyrazin-2-yl]amino}-1,2-thiazole-4-carboxamide] has an IC50 of 340 nM. For `Cc1nsc(Nc2cnc(C(F)(F)F)cn2)c1C(=O)Nc1ccc(O[C@@H]2CCN(CCC(F)(F)F)C2)nc1` [Example 381, 3-methyl-5-{[5-(trifluoromethyl)pyrazin-2-yl]amino}-N-(6-{[(3R)-1-(3,3,3-trifluoropropyl)pyrrolidin-3-yl]oxy}pyridin-3-yl)-1,2-thiazole-4-carboxamide], the IC50 was 47 nM. `Cc1nsc(Nc2cnc(C(F)(F)F)cn2)c1C(=O)Nc1ccc(O[C@H]2CCN(CC(F)F)C2)nc1` [Example 382, N-(6-{[(3S)-1-(2,2-difluoroethyl)pyrrolidin-3-yl]oxy}pyridin-3-yl)-3-methyl-5-{[5-(trifluoromethyl)pyrazin-2-yl]amino}-1,2-thiazole-4-carboxamide] was tested, and the IC50 was 24 nM. With `Cc1nsc(Nc2cnc(C(F)(F)F)cn2)c1C(=O)Nc1ccc(O[C@H]2CCN(CC(F)(F)F)C2)nc1` [Example 383, 3-methyl-N-(6-{[(3S)-1-(2,2,2-trifluoroethyl)pyrrolidin-3-yl]oxy}pyridin-3-yl)-5-{[5-(trifluoromethyl)pyrazin-2-yl]amino}-1,2-thiazole-4-carboxamide] the IC50 was 27 nM. `Cc1nsc(Nc2cnc(C(F)(F)F)cn2)c1C(=O)Nc1ccc(O[C@H]2CCN(CCC(F)(F)F)C2)nc1` [Example 384, 3-methyl-5-{[5-(trifluoromethyl)pyrazin-2-yl]amino}-N-(6-{[(3S)-1-(3,3,3-trifluoropropyl)pyrrolidin-3-yl]oxy}pyridin-3-yl)-1,2-thiazole-4-carboxamide] gave an IC50 of 62 nM. `Cc1nsc(Nc2cnc(C(F)(F)F)cn2)c1C(=O)Nc1ccc(O[C@@H]2CCCN(CC(F)F)C2)nc1` [Example 385, N-(6-{[(3R)-1-(2,2-difluoroethyl)piperidin-3-yl]oxy}pyridin-3-yl)-3-methyl-5-{[5-(trifluoromethyl)pyrazin-2-yl]amino}-1,2-thiazole-4-carboxamide] showed an IC50 of 180 nM. With `Cc1nsc(Nc2cnc(C(F)(F)F)cn2)c1C(=O)Nc1ccc(O[C@@H]2CCCN(CC(F)(F)F)C2)nc1` [Example 386, 3-methyl-N-(6-{[(3R)-1-(2,2,2-trifluoroethyl)piperidin-3-yl]oxy}pyridin-3-yl)-5-{[5-(trifluoromethyl)pyrazin-2-yl]amino}-1,2-thiazole-4-carboxamide] the IC50 was 41 nM. `Cc1nsc(Nc2cnc(C(F)(F)F)cn2)c1C(=O)Nc1ccc(O[C@@H]2CCCN(CCC(F)(F)F)C2)nc1` [Example 387, 3-methyl-5-{[5-(trifluoromethyl)pyrazin-2-yl]amino}-N-(6-{[(3R)-1-(3,3,3-trifluoropropyl)piperidin-3-yl]oxy}pyridin-3-yl)-1,2-thiazole-4-carboxamide] was tested, and the IC50 was 70 nM. `Cc1nsc(Nc2cnc(C(F)(F)F)cn2)c1C(=O)Nc1ccc(O[C@H]2CCCN(CC(F)F)C2)nc1` [Example 388, N-(6-{[(3S)-1-(2,2-difluoroethyl)piperidin-3-yl]oxy}pyridin-3-yl)-3-methyl-5-{[5-(trifluoromethyl)pyrazin-2-yl]amino}-1,2-thiazole-4-carboxamide] gave an IC50 of 37 nM. `Cc1nsc(Nc2cnc(C(F)(F)F)cn2)c1C(=O)Nc1ccc(O[C@H]2CCCN(CC(F)(F)F)C2)nc1` [Example 389, 3-methyl-N-(6-{[(3S)-1-(2,2,2-trifluoroethyl)piperidin-3-yl]oxy}pyridin-3-yl)-5-{[5-(trifluoromethyl)pyrazin-2-yl]amino}-1,2-thiazole-4-carboxamide] was tested, and the IC50 was 93 nM. With `Cc1nsc(Nc2cnc(C(F)(F)F)cn2)c1C(=O)Nc1ccc(O[C@H]2CCCN(CCC(F)(F)F)C2)nc1` [Example 390, 3-methyl-5-{[5-(trifluoromethyl)pyrazin-2-yl]amino}-N-(6-{[(3S)-1-(3,3,3-trifluoropropyl)piperidin-3-yl]oxy}pyridin-3-yl)-1,2-thiazole-4-carboxamide] the IC50 was 110 nM. Molecule `Cc1nsc(Nc2cnc(C(F)(F)F)cn2)c1C(=O)Nc1ccc(OCC2CCN(CC(F)(F)F)CC2(F)F)nc1` (stereo not shown) [Example 392, N-(6-{[3,3-difluoro-1-(2,2,2-trifluoroethyl)piperidin-4-yl]methoxy}pyridin-3-yl)-3-methyl-5-{[5-(trifluoromethyl)pyrazin-2-yl]amino}-1,2-thiazole-4-carboxamide] has an IC50 of 74 nM. In the case of `CCN1CCC(COc2ccc(NC(=O)c3c(C)nsc3Nc3cnc(C(F)(F)F)cn3)cn2)C(F)(F)C1` (stereo not shown) [Example 393, N-{6-[(1-ethyl-3,3-difluoropiperidin-4-yl)methoxy]pyridin-3-yl}-3-methyl-5-{[5-(trifluoromethyl)pyrazin-2-yl]amino}-1,2-thiazole-4-carboxamide], the IC50 is reported as 14 nM. `Cc1nsc(Nc2cnc(C(F)(F)F)cn2)c1C(=O)Nc1ccc(F)c(OC[C@@H]2CCCN(CCC(F)(F)F)C2)c1` [Example 395, N-(4-fluoro-3-{[(3R)-1-(3,3,3-trifluoropropyl)piperidin-3-yl]methoxy}phenyl)-3-methyl-5-{[5-(trifluoromethyl)pyrazin-2-yl]amino}-1,2-thiazole-4-carboxamide] showed an IC50 of 35 nM. `CCCCN1CCC(COc2ccc(NC(=O)c3c(C)nsc3Nc3cnc(C(F)(F)F)cn3)cn2)C(F)(F)C1` (stereo not shown) [Example 396, N-{6-[(1-butyl-3,3-difluoropiperidin-4-yl)methoxy]pyridin-3-yl}-3-methyl-5-{[5-(trifluoromethyl)pyrazin-2-yl]amino}-1,2-thiazole-4-carboxamide] gave an IC50 of 14 nM.

Reference: patent publication US20170334899A1, “AMINO-SUBSTITUTED ISOTHIAZOLES” (Bayer Pharma Aktiengesellschaft, priority 2014, published 2017)
